Data taken from patent US20150080461A1, “Composition Having Antiviral Activity against Flavivirus” (University Malaya, priority 2012, published 2015).
Converted amounts (≈) assume the structure as drawn.

Tests used:
[1] = test system: DENV-2 (NGC strain); test: Anti-adsorption activity against DENV-2 (FFURA, qRT-PCR); format: cell-based, Dengue virus type-2; conditions: added to cells simultaneously during infection, FFURA and qRT-PCR
Procedure: In another experiment, Vero cells at ˜80% confluency were infected with 200 FFU of DENV-2 in the presence or absence of different concentrations of quercetin. The microplate was kept at 37° C. for one hour for virus adsorption. Then the cells were washed twice using sterile PBS and incubated for two hours at 37° C. Cells were then incubated for 4 days and foci formed was counted and DENV RNA copy number to indicate inhibition of virus adsorption was quantified using quantitative RT-PCR.
(§1) In general, antiviral activity of quercein was evaluated by measuring the reduction in number of viral foci. Confluent Vero cell monolayers prepared in 24 wells cell culture microplates were used. […] The number of DENV-2 foci formed was counted under a stereomicroscope and the virus titer was expressed as Foci-Forming-Unit (FFU). The percentage of viral foci reduction (RF %) compared to untreated controls was calculated as follows: […]
(§2) Reduction in the number of viral foci was further verified using quantitative real time polymerase chain reaction (qRT-PCR) amplification.
(§3) Quantitative RT-PCR was performed to determine the effect of the compound on DENV replication by quantifying DENV-2 genomic RNA copy number. […] For absolute quantitation of the viral RNA, a standard curve was established with a serially diluted RNA extracted from DENV-2 stock with a known titer.

[2] = test system: DENV-2 (NGC strain); test: Direct virucidal effect against DENV-2 (FFURA, qRT-PCR); format: cell-based, Dengue virus type-2
Procedure: Direct virucidal effect of quercetin was investigated by incubating DENV-2 suspension containing 200 FFU with an equal volume of the different concentrations of quercetin for two hours at 37° C. Then, Vero cells were infected with the treated viral suspension in triplicates. At one hour adsorption at 37° C., cells were washed twice with PBS in order to remove unadsorbed viruses. The microplate was incubated at 37° C. for four days. Viral foci formed were counted and DENV RNA copy number to indicate direct virucidal effects was quantified using quantitative RT-PCR.
as §1, with “foci.” for “foci. Confluent Vero cell monolayers prepared in 24 wells cell culture microplates were used.”
as §2, §3

[3] = test system: DENV-2 (NGC strain); test: Post-adsorption antiviral activity against intracellular replication of DENV-2 (FFURA, qRT-PCR); format: cell-based, Dengue virus type-2
Procedure: Post-adsorption antiviral activity of quercetin against intracellular replication of DENV-2 was performed by inoculating 200 FFU of virus to each well containing monolayer of Vero cells. After adsorption of virus to the cells for one hour at 37° C., the cells were washed with PBS to remove the unadsorped viruses. Then, different concentrations of quercetin were added to the cells followed by four days incubation at 37° C. Viral foci formed were counted and DENV RNA copy number to indicate inhibition of virus replication was quantified using quantitative RT-PCR.
(§4) In general, antiviral activity of quercein was evaluated by measuring the reduction in number of viral foci. Confluent Vero cell monolayers prepared in 24 wells cell culture microplates were used. Then the infected cells treated using the different treatment regime was overlaid with 1.5% of carboxy methyl cellulose (CMC) (Sigma-Aldrich, St. Louis, Mo., USA) containing EMEM. Viral foci were visualized using peroxidase-based foci staining assay four days post infection. The number of DENV-2 foci formed was counted under a stereomicroscope and the virus titer was expressed as Foci-Forming-Unit (FFU). The percentage of viral foci reduction (RF %) compared to untreated controls was calculated as follows: […]
(§5) where, C is the mean of the number of foci for negative control well (without compound) and T is the mean of the number of foci in treated wells.
as §2
(§6) Quantitative RT-PCR was performed to determine the effect of the compound on DENV replication by quantifying DENV-2 genomic RNA copy number. Briefly, intracellular and extracellular DENV-2 RNAs were harvested from the DENV-infected Vero cells. Viral RNA was extracted using two types of RNA extraction kits (QlAamp Viral RNA mini kit and RNeasy mini kit) (Qiagen, Hilden, Germany). Quantitative RT-PCR assay was performed by adding 1 µl of extracted DENV RNA to the SensiMix SYBR green reagent (Quantace, Watford, United Kingdom) which contained 7.4 μl ddH2O, 10 μl 2× SensiMix One-Step, 0.4 μl 50× SYBR Green solution, 10 units of RNAse Inhibitor, 50 pmol of forward (DNF) and also reverse (D2R) primers. All samples were assayed in triplicate. Amplification was performed using the DNA Engine Opticon system (MJ Research/Bio-Rad, Hercules, Calif.) with the following cycling conditions: reverse transcription at 50° C. for 30 min, initial denaturation at 95° C. for 10 min, followed by 45 cycles of 95° C. for 15 sec, 59° C. for 30 sec and 72° C. for 30 sec. […] For absolute quantitation of the viral RNA, a standard curve was established with a serially diluted RNA extracted from DENV-2 stock with a known titer.

[4] = MTT cytotoxicity assay on Vero cells; format: cell-based; conditions: African green monkey, read-out: CC50, cytotoxicity effect against Vero cells
Procedure: C6/36 mosquito cell line derived from Aedes albopictus and Vero cell line were used. Both cell lines were maintained and propagated in Eagle's Minimum Essential Medium (EMEM) containing 10% fetal bovine serum. Cultured C6/36 and Vero cells were incubated at 28° C. and 37° C., respectively in 5% CO2 humidified chamber. At the time of virus propagation, serum concentration was reduced to 2%. Dengue virus type-2 (DENV-2) New Guinea C strain (NGC) was propagated using C6/36 cell line and harvested after CPE presentation on day seven post infection. After titration, viral stock was stored at -70° C. MTT (Dimethyl thiazolyl diphenyl tetrazolium salt) assay was performed to determine cytotoxicity of quercetin on Vero cells.

[5] = test system: DENV-2 (NGC strain); test: Continuous treatment antiviral activity against DENV-2 (FFURA, qRT-PCR); format: cell-based, Dengue virus type-2
Procedure: In separate experiment, to determine the antiviral activities of quercetin when used continuously, different concentrations of quercetin were added to the Vero cell monolayer five hours before virus infection. After five hours of pre-infection treatment, the cells were washed twice with sterile PBS and then 200 FFU of DENV-2 was inoculated to the cells and incubated at 37° C. for one hour. Infected cells were continuously incubated with the respective concentration of quercetin for four days post infection. Viral foci formed were counted and DENV RNA copy number to indicate inhibition of virus replication was quantified using quantitative RT-PCR.
as §4, §5, §2
as §6, with “triplicate.” for “triplicate. Amplification was performed using the DNA Engine Opticon system (MJ Research/Bio-Rad, Hercules, Calif.) with the following cycling conditions: reverse transcription at 50° C. for 30 min, initial denaturation at 95° C. for 10 min, followed by 45 cycles of 95° C. for 15 sec, 59° C. for 30 sec and 72° C. for 30 sec.”

Structure (SMILES): O=c1c(O)c(-c2ccc(O)c(O)c2)oc2cc(O)cc(O)c12 [quercetin, 2-(3,4-dihydroxyphenyl)-3,5,7-trihydroxy-4H-1-benzopyran-4-one]
- anti-adsorption activity against DENV-2 [1]: ~5%
- decrease in copy number of DENV-2 RNA following direct treatment ([2]; different concentrations of compound, qRT-PCR): no significant decrease
- direct virucidal activity against DENV-2 ([2]; virus incubated with compound two hours at 37° C., foci): no significant direct virucidal activity
- decrease of DENV-2 specific RNA production ([3]; 50 μg/mL quercetin, post-adsorption, qRT-PCR, vs non-treated infected cells): more than 67%±1
- appearance of viral foci in treated cells ([3]; 50 μg/ml quercetin, foci staining, vs untreated dengue infected cells): small, less intensely stained and more diffused
- IC50 ([3]; Dengue virus, DENV2, added post viral adsorption, Vero cells, FFURA): 35.7 µg/mL (≈ 118 µM)
- SI value ([3]; post-adsorption assay): 7.07
- CC50 [4]: 252.6 ± 0.17 µg/mL (≈ 836 µM)
- decrease of the number of DENV-2 foci ([5]; 50 μg/mL quercetin, continuous treatment of Vero cells, vs non-treated cells): 70%±1.5
- IC50 ([5]; Dengue virus, DENV2, continuous treatment from 5 hours before infection up to 4 days post-infection, Vero cells, FFURA, read-out: IC50, anti-dengue activity): 28.9 µg/mL (≈ 95.6 µM)
- SI value ([5]; continuous treatment): 8.74
- decrease of DENV-2 RNA production ([5]; continuous treatment, qRT-PCR): more than 75.7%±1.57
